Tested on: Trypanosoma brucei brucei
Assay: microbe, parasite or virus in culture
Format: functional, organism-based, STIB 795
Settings: Trypanosoma brucei, STIB 795
Description: DNDI: Inhibition of Human African Trypanosomiasis (HAT), STIB 795, in vitro

SMILES	IC50
COc1ccc2nc(C)cc(Nc3ccc(N4CCOCC4)cc3)c2c1	> 10.4 µM
O=C(Nc1nc(-c2ccccn2)cc2ccccc12)c1cccc(Cl)c1	> 10.4 µM
O=C(CC(SCCO)c1ccc2c(c1)OCO2)c1cccs1 (stereo not drawn)	> 10.4 µM
CN(C)S(=O)(=O)c1ccc2nc(NC(=O)c3cccs3)sc2c1	> 10.4 µM
CCOC(=O)c1c(N)sc2c(OCC)c(Br)ccc12	> 10.4 µM
CCOC(=O)c1ccc(Nc2nc(-c3cccnc3)nc3ccccc23)cc1	> 10.4 µM
CC1CCN(S(=O)(=O)c2ccc3c4c2CC(=O)N4CC(C)S3)CC1 (stereo not drawn)	> 10.4 µM
Oc1c(C(c2ccccn2)N2CCCCC2)cc(Cl)c2cccnc12 (stereo not drawn)	> 10.4 µM
CC(NC(=O)c1cc(S(=O)(=O)N2CCCC2)cn1C)c1ccccc1 (stereo not drawn)	> 10.4 µM
CC(=O)C1=C(c2ccc(Br)cc2)C(=O)c2ccccc2C1=O	> 10.4 µM
N#CC1=C(N)NC(SCc2ccc(F)cc2)=C(C#N)C12CCCCC2	> 10.4 µM
Clc1ccc(-c2nnc(NCCN3CCCC3)c3ccccc23)cc1	> 10.4 µM
CCOc1cc(CNC2CCCC2)cc(Cl)c1OCc1ccccc1	> 10.4 µM
COc1cc2c(cc1Cl)/C(=C\CCN(C)C)c1ccccc1S2	> 10.4 µM
CCOc1cccc(CNCCO)c1OCc1ccc(Cl)cc1Cl	> 10.4 µM
CC(NCC(O)COCCC12CC3CC(CC(C3)C1)C2)c1ccccc1 (stereo not drawn)	> 10.4 µM
CN1CCC(Oc2ccccc2Sc2ccc(C(F)(F)F)cc2)CC1	> 10.4 µM
N=c1n(Cc2ccccc2Cl)c2ccccc2n1CC(O)c1ccco1 (stereo not drawn)	> 10.4 µM
CCOc1ccc(C(=O)N/N=C(\c2ccccc2)c2ccccn2)cc1	> 10.4 µM
O=C(N/N=C\c1c(O)ccc2ccccc12)c1ccc(Cn2cccn2)o1	> 10.4 µM
CC(=O)Nc1cccc2c1C(=O)C(Cl)=C(N1CCOCC1)C2=O	> 10.4 µM
CC1=C/C(=N\OC(=O)c2ccccc2Br)CC(C)(C)C1	> 10.4 µM
Cc1cc(C(=O)N/N=C/c2ccc(-c3cccc(C(=O)O)c3)o2)[nH]n1	> 10.4 µM
Cc1c(-c2cc(F)cc3c2CC(C)(C)O3)ccc2nc(N)nc(N)c12	> 10.4 µM

SMILES	IC50
CC1C(=O)Nc2ccc(S(=O)(=O)N3CCOCC3)cc2NC1=O (stereo not drawn)	> 10.4 µM
CCCc1ccc(C(OCCN(C)C)c2ccc(CCC)cc2)cc1	> 10.4 µM
O=C1C(O)=C/C(=N/c2ccc(Cc3ccncc3)cc2)c2ccccc21	> 10.4 µM
OCCSc1nc2ccccc2nc1N/N=C/c1ccccc1O	> 10.4 µM
Cc1cccc(/C(=N\c2ccc(C)c(Cl)c2)NC2CCCCC2)c1	> 10.4 µM
O=C(NCC1CCCO1)C(=O)N/N=C/c1c(O)ccc2ccccc12 (stereo not drawn)	> 10.4 µM
COCC(=O)N/N=C/c1ccc(Sc2cccc3cccnc23)o1	> 10.4 µM
O=C(CCSc1ccccc1)Nc1nc(-c2ccccn2)cs1	> 10.4 µM
CON(C)C(=O)Nc1ccc(Cl)c(CN2OCC(C)(C)C2=O)c1	> 10.4 µM
CCn1c2ccccc2c2cc(/C=N/NC(=O)c3ccccn3)ccc21	> 10.4 µM
CCS(=O)(=O)c1cccc(-c2ccc3nc(N)nc(N)c3c2C)c1	> 10.4 µM
O=C(Cc1cccs1)Nc1ccc(C(=O)Nc2nccs2)cc1	> 10.4 µM
Cc1nc(SCC(=O)NC2CCCCC2)n(-c2ccccc2)c1C	> 10.4 µM
CCOC(=O)c1ccc(CCCCCOc2cnc(N)nc2N)cc1	> 10.4 µM
Cc1ccc2[nH]c3c(c2c1)CCC(/C=N/NC(=O)c1ccccc1)C3=O (stereo not drawn)	> 10.4 µM
CC(C)(C)c1ccc(C(CN)c2ccc(Oc3ccccc3)cc2)cc1 (stereo not drawn)	> 10.4 µM
Cc1ccc(NC(=O)C/C(N)=N/OC(=O)c2ccccc2Cl)cc1	> 10.4 µM
O=C(Nc1nccs1)c1ccc(=O)n(Cc2ccccc2Cl)c1	> 10.4 µM
N#C/C(=C\Nc1cc(Cl)ccc1O)c1nc2cc(Cl)ccc2o1	> 10.4 µM
CCOC(=O)c1ccc(NC(=O)C(=O)NN=C2CCN(C)CC2)cc1	> 10.4 µM
CCN(CC)C1=C(n2nnc3ccccc32)C(=O)c2ccccc2C1=O	> 10.4 µM
CCC(C)NC(=O)c1cccc(Nc2ccnc(-c3ccccc3)n2)c1 (stereo not drawn)	> 10.4 µM
CC(C)CCn1c(/C=N/Nc2nc3ccccc3[nH]2)nc2ccccc21	> 10.4 µM
C=CCn1c(Oc2ccccc2Cl)nc2c1c(=O)n(C)c(=O)n2C	> 10.4 µM

SMILES	IC50
CCOC(=O)CNC(=O)c1ccc2c(Cl)c3c(nc2c1)CCCC3	> 10.4 µM
O=C(CC1(O)C(=O)Nc2ccc(Br)cc21)c1ccccn1 (stereo not drawn)	> 10.4 µM
C/C(=N\N1C(=O)c2ccccc2NC1c1ccco1)c1ccccc1O (stereo not drawn)	> 10.4 µM
CCCC1(CCC)c2ccccc2C(=CCCN(C)C)c2ccccc21	> 10.4 µM
CCOc1nc(Nc2ccc(Cl)cc2)nc(NC2CCCCC2)n1	> 10.4 µM
Cc1cc(C(=O)N/N=C/c2cc(/N=N/c3ccccc3)ccc2O)[nH]n1	> 10.4 µM
COC(=O)CCC/C=C1/SC[C@@H](NC(=O)c2ccccc2)/C1=N/O	> 10.4 µM
N#Cc1c(N)nc(SCc2ccccc2)c(C#N)c1C1CCCCC1	> 10.4 µM
OC(CNCCc1ccccc1)Cn1c2c(c3ccccc31)CCCC2 (stereo not drawn)	> 10.4 µM
O=C(N/N=C/c1ccc(Br)cc1O)c1n[nH]c2c1CCC2	> 10.4 µM
O=C(Nc1ccccc1C(=O)N/N=C/c1ccccc1O)c1ccco1	> 10.4 µM
CC(=O)c1sc(Nc2nc(NC(C)C)nc(NC(C)C)n2)nc1C	> 10.4 µM
N#Cc1c(Cl)ncc2c1Nc1ccccc1C2Sc1ccccc1 (stereo not drawn)	> 10.4 µM
Cc1nc(N)nc(N)c1[C@@H]1CCC[C@@H](c2ccc(C(F)(F)F)cc2)C1	> 10.4 µM
CCc1cc(-c2n[nH]c(C)c2-c2nc3ccccc3s2)c(O)cc1O	> 10.4 µM
Nc1ccccc1SC(CC(=O)c1ccc(F)cc1)c1ccccc1 (stereo not drawn)	> 10.4 µM
O=C1C(=O)N(Cc2cc(F)cc(F)c2)c2ccc(Br)cc21	> 10.4 µM
O=C(O/N=C(/c1ccc2c(c1)OCO2)N1CCCCC1)c1ccccc1	> 10.4 µM
C=CCNC(=O)CCCc1nc2cccnc2n1Cc1ccc(F)cc1	> 10.4 µM
CC(C)(C)C(=O)Nc1cccc(NC(=O)c2ccc(C(C)(C)C)cc2)c1	> 10.4 µM
CCCN1C/C(=C/c2cccc(F)c2)C(=O)/C(=C/c2cccc(F)c2)C1	> 10.4 µM
O=C(N/N=C/c1cc(Cl)ccc1O)c1ccccc1Br	> 10.4 µM
CC1(C)CC(=O)C(C2(O)C(=O)Nc3ccc(Br)cc32)CO1 (stereo not drawn)	> 10.4 µM
NC(=S)N/N=C/c1ccc(OCc2c(Cl)cccc2Cl)cc1	> 10.4 µM

SMILES	IC50
COc1ccc(-c2noc(CCC(=O)Nc3ccncc3)n2)cc1OC	> 10.4 µM
Cn1c(=O)n(C)c2cc(N3CCCCC3)c(NC(=O)c3ccco3)cc21	> 10.4 µM
Cc1nc2ncnn2c(Sc2ccc(NC(=O)CC(C)C)cc2)c1C	> 10.4 µM
CCOC(=O)Cc1csc(NC(=S)NC(=O)C2CCCCC2)n1	> 10.4 µM
Clc1ccc(C(=C2CN3CCC2CC3)c2ccc(Cl)s2)s1	> 10.4 µM
COc1ccccc1C(=O)NCCc1csc(-c2cccc(F)c2)n1	> 10.4 µM
Fc1ccc(C2CCCN(CCN3CCCC3)c3cc(F)ccc32)cc1 (stereo not drawn)	> 10.4 µM
Cc1nc(NC(C)(C)C)c2sc3nc4c(cc3c2n1)COC(C)(C)C4	> 10.4 µM
O=C1c2ccc(Cl)c3c(Cl)ccc(c23)C(=O)N1Nc1ccccc1	> 10.4 µM
CCC(C)(CC)c1ccc(C(CN)c2ccc(-c3ccccc3)cc2)cc1 (stereo not drawn)	> 10.4 µM
O=C(N/N=C/c1ccc(-c2ccc(Br)cc2)o1)c1ccco1	> 10.4 µM
COc1ccc(-c2n/c(=N/c3ccccc3)sn2-c2ccccc2)cc1	> 10.4 µM
Cc1ccc(Nc2nc3nonc3nc2NC(C)c2ccccc2)cc1C (stereo not drawn)	> 10.4 µM
Cc1ccc(C2=NC(c3ccccc3F)NC(c3ccccc3O)C2)cc1 (stereo not drawn)	> 10.4 µM
CC1(C)CC(NC(=O)c2ccc(C#Cc3ccccc3)cc2)CC(C)(C)N1	> 10.4 µM
Fc1ccc(OCc2nn3c(-c4ccccc4Cl)nnc3s2)cc1	> 10.4 µM
COc1ccccc1NCN1C(=O)C(=O)c2cc(Br)ccc21	> 10.4 µM
CCOC(=O)c1c(C)[nH]c2c1-c1cc(Br)ccc1C(=O)C2=O	> 10.4 µM
Cc1occc1C(=O)N/N=C/c1ccc(-c2ccc(Cl)cc2Cl)o1	> 10.4 µM
Cc1cnn(-c2cc(N/N=C/c3cc(Cl)cc(Cl)c3O)ncn2)c1	> 10.4 µM
C/C(=N\NC(=O)c1ccc(C)c(Br)c1)c1ccc(O)cc1O	> 10.4 µM
C=C(CC(CN1CCOCC1)C(=O)c1ccccc1)C(=O)c1ccccc1 (stereo not drawn)	> 10.4 µM
OC(CNCc1ccccc1)COc1cc2ccsc2c2ccccc12 (stereo not drawn)	> 10.4 µM
CCN(CC(O)COCCC12CC3CC(CC(C3)C1)C2)C1CCCCC1 (stereo not drawn)	> 10.4 µM

SMILES	IC50
CC(C)(C)N(NC(=O)Nc1ccc(Cl)cc1)C(=O)c1ccccc1F	> 10.4 µM
CN1CCC(C2Oc3ccc(F)cc3Sc3ccc(Cl)cc32)CC1 (stereo not drawn)	> 10.4 µM
C=CCn1c(=O)c(=O)n(CCC(=O)NCc2cccnc2)c2ccccc21	> 10.4 µM
COc1ccc(C(=O)CC(SCCO)c2ccc(F)cc2)cc1OC (stereo not drawn)	> 10.4 µM
Cc1cc(C(=O)CN2CCCCC2)c(C)n1-c1ccc(Cl)c(Cl)c1	> 10.4 µM
O=C(N/N=C/c1cc(Cl)ccc1O)c1cc(C2CC2)nc2ccccc12	> 10.4 µM
COC(C(=O)NCc1ccc(Cl)cc1)(c1ccccc1)c1ccccc1	> 10.4 µM
CCn1c2ccccc2c2cc(NC(=O)C(=O)NCCCN(C)C)ccc21	> 10.4 µM
CCCC(=O)NC(c1ccc(SC)cc1)c1ccc2cccnc2c1O (stereo not drawn)	> 10.4 µM
CC(C)(C)c1cc(C(c2ccncc2)N2CCCC2)cc(C(C)(C)C)c1O (stereo not drawn)	> 10.4 µM
CC1CN(C(=O)c2ccc(COc3ccc(C(C)C)cc3)cc2)CC(C)O1 (stereo not drawn)	> 10.4 µM
O=C(Nc1ccc(Cl)c(-c2nc3ncccc3o2)c1)c1cccc(F)c1	> 10.4 µM
COC(=O)C1=C(C)N(c2ccccc2)/C(=C/c2cccc3ccccc23)C1=O	> 10.4 µM
CCN(CC)C(=O)c1ccc(Nc2ccnc3cc4ccccc4cc23)cc1	> 10.4 µM
O=C(N/N=C/c1cc(Cl)cc(Br)c1O)c1ccccc1O	> 10.4 µM
Cn1c(NC(=O)c2ccccc2NC(=O)c2ccccc2)nc2ccccc21	> 10.4 µM
CN(C)c1ccc(C2(c3ccc(N(C)C)cc3)C=Cc3ccccc3O2)cc1	> 10.4 µM
CCC(=O)N1CCN(c2oc(/C=C/c3ccc(Cl)cc3)nc2C#N)CC1	> 10.4 µM
CNC(=O)c1c[nH]c2ccc(S(=O)(=O)Nc3ccccc3C)cc2c1=O	> 10.4 µM
Cn1c(=O)sc2cc(S(=O)(=O)Nc3cccc4cccnc34)ccc21	> 10.4 µM
CC(C)C(=O)NC(c1cccs1)c1cc(Cl)c2cccnc2c1O (stereo not drawn)	> 10.4 µM
Cc1ccc(Nc2nc3c(N)nnc(N)c3nc2Nc2ccc(C)cc2)cc1	> 10.4 µM
